From article PMC4674085, “Towards Prebiotic Catalytic Amyloids Using High Throughput Screening” (PLoS ONE, 2015)
Ends that are not written are not given here.

Legend:
[1] = Circular dichroism (CD), secondary structure of aggregates; format: physicochemical; design: key: β+: has minimum near 217 nm; β++: has minimum near 217 nm and a maximum near 197 nm; −: signal too weak to interpret; ?: spectra not typical of any secondary structure
Method: The concept of creating an amyloid library out of a peptide library is only meaningful if the vast majority of the peptides actually form amyloids in at least one of the conditions tested. To establish the validity of our amyloid library we measured circular dichroism (CD), Fourier transform infrared spectroscopy (ATR-FTIR), as well as thioflavin T (ThT) fluorescence of peptides 1–33 at pH 7.3 (50 mM HEPES) and pH 4 (50 mM NaOAc) (see interactive Table A and associated data in S1 File). Based on the analysis of the CD and ATR-FTIR spectra (shown in the interactive Table A in S1 File) all the peptides formed β-structured aggregates in at least one condition. Most of the 33 peptides induced a significant increase in ThT fluorescence in at least one condition. […] The fibrils from a selection of the active peptides were aligned and analyzed by X-ray diffraction (Figures C and D in S1 File). In each case we observed the cross-β diffraction pattern typical of amyloid fibrils, although the degree of sample alignment varied. For two samples, 14 and 27, the difference in meridional and equatorial diffraction intensities was small but easily detected in a plot of the angular dependence of the intensity (Figure D in S1 File). The conclusion that can be drawn out of the multiple analysis techniques is that the 33 peptides that comprise the library are overwhelmingly prone to form fibril-like, β-structured aggregates. The cross-β diffraction of the tested aggregates would imply that they are more specifically all amyloidogenic.
CD measurements were carried out on a Jasco J815. Samples were prepared by centrifuging the amyloid library at 25,000 g for 10 min and then removing the supernatant. The pellets were resuspended at an approximate concentration of 100 μg/ml in 10 mM HEPES pH 7.3 (for mixtures from 50 mM HEPES) or 10 mM NaOAc pH 4 (for mixtures from 50 mM NaOAc), the suspensions were then treated with an ultrasonic probe for 5 s, upon which the solutions were placed in 1 mm cuvettes, diluted as necessary to maintain the detector voltage below 600 V and scanned from 260–190 nm at 50 nm/min, 1 nm band-pass, 2 second integration, averaged over 3 repetitions.
(§1) Table A and associated data: Biophysical characterization of library
(§2) Sequence ThT1 CD2 FTIR3 EM4 ThT CD FTIR EM X-ray5 […]
2. […]

[2] = Thioflavin T fluorescence (ThT); format: physicochemical; details: crude peptide fibrillized at 160 μM, mixed 10:1 with 50 μM ThT, ex 440 nm em 480 nm
Method: The samples of the amyloid library (50 mM HEPES pH 7.3 or 50 mM NaOAc pH 4) were mixed 10:1 with 50 μM ThT and the increase in fluorescence was measured in a 384-well plate in a BMG Pherastar platereader (ex: 440 nm em: 480 nm). The background signal from the peptides without ThT was subtracted from the one with the ThT present in the sample. Due to the large dynamic range of the signals among the many samples, the measurements were made at two different gain settings to ensure that all of the signals fell within the measureable range.
as §1
Sequence ThT1 CD2 FTIR3 EM4 ThT CD FTIR EM X-ray5
1. Fold increase in ThT ﬂuorescence over background. […]

[3] = ATR-FTIR, amide I peak of aggregates; format: physicochemical; design: key: indicates that no peak was observed within the typical range of stretching frequencies forβ-structure (between dashed lines at 1638 cm−1 and 1615 cm−1); details: air-dried pellet, crude peptide
Method: Samples were prepared as for the CD measurements, but instead of re-suspending the samples after centrifugation, 3 μl of H2O were added to the pellet so that it could be placed onto the diamond ATR cell of a Bruker Alpha-p ATR-FTIR spectrometer followed by air-drying before measuring the spectra. Blank subtraction was performed with an empty cell (air) and all measurements were performed without the pressure applicator.
as §1, §2
(§3) 3. The peak position in amide I region is given in cm−1. […]

[4] = Transmission electron microscopy (TEM) of fibrils; format: physicochemical; design: key: +: ﬁbrils present; −: absent in EM micrographs; details: uranyl acetate stain
Method: The samples of the amyloid library (50 mM HEPES pH 7.3 or 50 mM NaOAc pH 4) were applied directly to glow-discharged carbon-coated grids, washed and then stained with uranyl acetate. Images were recorded on a Philips CM 12 electron microscope.
as §1, §2
4. (+) ﬁbrils present or (−) absent in EM micrographs. […]

[5] = Plate reader 4NPA hydrolysis kinetics of purified peptide amyloids at pH 7.3; format: biochemical; details: 4NPA hydrolysis
Method: The reaction buffer consisted of the same buffer as the fibrillization buffer without ZnCl2 and with 1.33 mM 4NPA prepared from a 100 mM stock in CH3CN. The samples of the amyloid library were mixed 1:3 with the reaction buffer yielding 40 μM peptide and, when present 250 μM zinc(II). The absorbance measurements were performed in a BMG Pherastar platereader with a 400 nm band-pass filter (10 nm bandwidth) in 96-well Nunclon Delta surface plates or 384-well Greiner Bio-One non-bind black μclear plates.
The kinetics assays performed on the purified peptides were prepared similarly except that the peptide concentration was 20 μM in the reaction. Furthermore, the various substrate concentrations and replicate samples were randomly distributed over the plate to minimize systematic errors. Various 4NPA concentrations (i.e. 0.1 mM, 0.2 mM, 0.4 mM, 0.6 mM, 1.0 mM) were added from a 100 times stock so that the final CH3CN concentration was always 1%. The linear part of the hydrolysis activity was fit with an extinction coefficient of ε = 9700 M^-1cm^-1 and corrected for the background reaction rate of buffer alone (v bg = 5.0 × 10^-6 Ms^-1) to obtain the initial reaction rate v 0. The average of the initial reaction rates at each substrate concentration were then fit to the Michaelis-Menten type kinetics to obtain k cat, K M and k cat/K M always calculated per monomer peptide. The background reaction rate was obtained similarly using 5 replicates.

[6] = X-ray fiber diffraction of aligned fibrils; format: physicochemical; details: washed pellets dried between glass capillaries, room temperature
Method: The samples were centrifuged, the pellet resuspended (ultrapure water or 10 mM NaOAc pH 4) and centrifuged again. The washed pellets were resuspended in a minimal amount of water and 4 μl of the suspension were pipetted between the melted ends of two glass capillaries, which were then left to dry overnight in a sealed petri dish. The dried material was placed in an X-ray beam (Rigaku MicroMax-007HF) at room temperature for a 20 min exposure and diffraction data was collected on a Mar345 image plate detector.
Table A and associated data: Biophysical characterization of library […]
1. Fold increase in ThT ﬂuorescence over background.
2. CD spectra classiﬁed as follows: (β+) has minimum near 217 nm, (β++) has minimum near 217 nm and a maximum near 197 nm, (−) signal too weak to interpret, (?) spectra not typical of any secondary […]
as §3
within the typical range of stretching frequencies forβ-structure (between dashed lines at 1638 cm−1 and […]
4. (+) ﬁbrils present or (−) absent in EM micrographs.
5. Diﬀraction images recorded for the aligned ﬁbrils of 5 diﬀerent peptides (see materials and methods).

[7] = NMR-based 4NPA hydrolysis assay at pH 4.3; format: biochemical; details: 4NPA hydrolysis by 1D-1H NMR, 50 mM d3-NaOAc pH 4.3, 2% d6-DMSO, 40 μM total purified peptide (mixture 20 μM each), 0.9 mM 4NPA, 25°C, over 15 days, first order fit, no zinc(II)
Method: Purified peptides were solubilized in deuterated DMSO with 1% TFA at a concentration of 4 mM and subsequently diluted to 160 μM in 50 mM deuterated NaOAc buffer at pH 4.3. In the case of the peptide mixture fibrillization (12/21), each peptide was 80 μM. Fibrillization occurred over 5 days after which the sample was diluted to 40 μM total peptide in 50 mM buffer with 0.9 mM 4NPA (from a 90 mM stock solution in d6-DMSO) and a final concentration of d6-DMSO of 2%. From this reaction mixture 500 μl was transferred to a 5 mm NMR tube and measurements were performed in a 600 MHz Bruker NMR spectrometer equipped with a cryo-probe.
The hydrolysis kinetics were monitored in a continuous series of 1D-^1H experiments each consisting of 32 scans at 25°C and each requiring 17 min. In this manner, several time segments lasting between 8 and 17 hours were collected over a period of 15 days. Between measurements, the samples were kept at 25°C.
Data processing and peak integration was performed with Topspin3.2 (Bruker). Relevant peaks used for the analysis were the 4 aromatic protons of both 4NPA and of its product (p-nitrophenol) as well as the methyl groups of 4NPA and acetic acid. The ratio of the sum of integrals for the product protons to the sum of integrals for all protons was used to calculate the substrate concentration. […]

[8] = Aggregation at pH 4 from soluble material left after 100,000 g centrifugation; format: physicochemical; details: 40 μM purified peptide, pH 4, soluble material in supernatant of 100,000 g centrifugation
[9] = Solubility of binary alternating Val/Ser peptides (supernatant vs precipitate, quantitated by total hydrolysis); format: physicochemical; details: 200 μM peptide, 50 mM HEPES buffer pH 7.3, fibrillization for 2 days
Excerpt: A high β-aggregation propensity is essential for a combinatorial peptide library in the form of amyloids. To satisfy this requirement we profited from the well-documented observation that in aqueous environments, binary alternating sequences of hydrophobic-hydrophilic residues are prone to oligomerize into amphipathic β-structures. In these structures, the hydrophobic residues are buried at the interface of two β-sheets, leaving the hydrophilic residues on the surface. In keeping with the theme of a prebiotic fold, we wanted to use the shortest peptides that still guaranteed a high percentage of amyloidogenic peptides in the library. […]
For peptides that contain Tyr the concentration of the peptide was measured by diluting a 3–5 mM DMSO stock of the peptide 20-fold into 10 mM HCl and quickly measuring the UV spectrum to minimize the potential for aggregation (ε276 = 1500 M^-1cm^-1). Peptide 36 was quantitated during purification by C18 reversed phase HPLC using a calculated extinction coefficient of ε214 = 13963 M^-1cm^-1. The quantification of the VS peptides in Table 1 and peptide 34 was performed by total hydrolysis in 6 M HCl at 160°C for 2 h. The hydrolyzed samples were analyzed by C18 reversed-phase and the amount of Val or Ile was calculated by comparing the chromatographic peak areas to amino acid samples of known quantity.

[10] = pH 4.0, pellet (25,000 g, 10 min) resuspended ~100 μg/ml in 10 mM NaOAc pH 4, crude peptide
[11] = pH 7.3, pellet (25,000 g, 10 min) resuspended ~100 μg/ml in 10 mM HEPES pH 7.3, crude peptide

## Ac-YVHVSVHV-NH2 [Peptide 10, Ac-YVHVSVHV-CONH2]
[1]; [10]
  CD spectrum class: −
[1]; [11]
  CD spectrum class: β+
[2]; pH 4.0, 50 mM NaOAc
  ThT, fold increase in ThT fluorescence over background: 1 fold
[2]; pH 7.3, 50 mM HEPES
  ThT, fold increase in ThT fluorescence over background: 29 fold
[3]; pH 4.0 (50 mM NaOAc)
  FTIR peak position in amide I region: −
[3]; pH 7.3 (50 mM HEPES)
  FTIR peak position in amide I region: 1623 cm⁻¹
[4]; pH 7.3, 50 mM HEPES
  EM, fibrils in EM micrographs: +
[5]; pH 7.3, plate reader A400, linear fit, triplicate (36 without replicates)
  k cat/K M = k 2 from linear fit to v 0 = [E]0 k 2[S]: 0.172 ± 0.003 M⁻¹ s⁻¹

## Ac-YVHVAVHV-NH2 [Peptide 28, Ac-YVHVAVHV-CONH2]
[1]; [10]
  CD spectrum class: −
[1]; [11]
  CD spectrum class: β+
[2]; pH 4.0, 50 mM NaOAc
  ThT, fold increase in ThT fluorescence over background: 1 fold
[2]; pH 7.3, 50 mM HEPES
  ThT, fold increase in ThT fluorescence over background: 114 fold
[3]; pH 4.0 (50 mM NaOAc)
  FTIR peak position in amide I region: −
[3]; pH 7.3 (50 mM HEPES)
  FTIR peak position in amide I region: 1624 cm⁻¹
[4]; pH 7.3, 50 mM HEPES
  EM, fibrils in EM micrographs: +
[5]; pH 7.3 HEPES with zinc(II), 20 μM purified peptide, 0.1-1.0 mM 4NPA, 1% CH3CN, A400, Michaelis-Menten fit, per monomer peptide, triplicate (duplicate for 8, 27, 34, 35)
  k cat/K M: 0.215 ± 0.007 M⁻¹ s⁻¹
[5]; pH 7.3 HEPES with zinc(II), 20 μM purified peptide, Michaelis-Menten fit
  K M: 1950 ± 230 µM
[5]; pH 7.3 HEPES with zinc(II), 20 μM purified peptide, Michaelis-Menten fit, per monomer peptide
  k cat: 0.042±0.004 10^-2s^-1

## Ac-YVSVSVHV-NH2 [Peptide 12, Ac-YVSVSVHV-CONH2]
[1]; [11]
  CD spectrum class: β++
[2]; pH 4.0, 50 mM NaOAc
  ThT, fold increase in ThT fluorescence over background: 5 fold
[2]; pH 7.3, 50 mM HEPES
  ThT, fold increase in ThT fluorescence over background: 183 fold
[3]; pH 4.0 (50 mM NaOAc)
  FTIR peak position in amide I region: 1621 cm⁻¹
[3]; pH 7.3 (50 mM HEPES)
  FTIR peak position in amide I region: 1623 cm⁻¹
[4]; pH 4.0, 50 mM NaOAc
  EM, fibrils in EM micrographs: +
[6]
  X-ray diffraction of aligned fibrils: cross-β
[7]
  k cat/K M: 6145.6±8.5 10^-6M^-1s^-1
[8]
  aggregation behaviour at pH 4: began to aggregate within minutes

## VSVSVSV-NH2 [VSVSVSV-CONH2]
[9]
  peptide in solution after centrifugation at 25,000 g: less than 5%
